Assay results reported in US10004786B2 (Zealand Pharma A/S, priority 2009, dated 2018).

Columns and labels:
Assay type in all cases: in vivo
[1] = Food intake in young lean and old obese C57BL/6J mice; settings: s.c. at t=0 h and t=12 h, p<0.05 versus vehicle
Procedure: C57BL/6J mice were on a high fat diet for 11 days and C57BL/6J mice were on a high fat diet for 52 weeks.
3 days before study, the mice were transferred to individual cages and weighed. 4 days before study, they were acclimatized to handling and treatment by daily s.c. injections. On the day before the experiment food was removed at 20:00. […] Immediately after treatment (t=0), pre-weighed food were introduced to the mice and the cumulative food intake was measured by weighing the remaining food after t=1, 2, 4, 8, 12 and 24 hours. After weighing the food and the animals at t=24 h, the mice were sacrificed by cervical dislocation.
Immediately after treatment (t=0), pre-weighed food were introduced to the mice and the cumulative food intake was measured by weighing the remaining food after t=1, 2, 4, 8, 12 and 24 hours.

[2] = Oral glucose tolerance 2, 4, 6, 8, 10 and 12 h after dosing in high fat fed mice; settings: 10 nmol/kg s.c. single dose, high fat fed C57BL/6J mice
Procedure: C57Bl/6J male mice, 6 weeks old, were acclimatized to their new environment with free access to a high fat diet (D12492, Research Diet Inc., New Brunswick, USA) and water. The animals were injected s.c. with vehicle for a period of three days to acclimatize the animals to handling and injections. Blood samples were taken from the tip of the tail and blood glucose measured. The blood glucose (mM) concentration was analyzed by the immobilized glucose oxidase method using a drop of blood (<5 μl; Contour Autoanalyser, Bayer, Denmark) following the manufacturer's manual. After 4 weeks on the high fat diet the animals were weighed and the body weight was used to administer a body weight-corrected dose of peptide. An oral glucose tolerance test (OGTT) was performed after subjecting the animals to 4 hours of fasting. At 2, 4, 6, 8, 10 and 12 hours after single peptide or vehicle dosing an initial blood sample were taken (t=−0 min). Immediately thereafter, an oral dose of glucose (1 g/kg) was given and the animals were returned to their home cages (t=0). BG levels were measured at t=15 min, t=30 min, t=60 min and t=90 min. […]
An oral glucose tolerance test (OGTT) was performed after subjecting the animals to 4 hours of fasting. […] BG levels were measured at t=15 min, t=30 min, t=60 min and t=90 min. […]

[3] = Total cholesterol and HDL/LDL ratio in Diet Induced Obese (DIO) mice; settings: 4 weeks, 12.7 nmol/kg, plasma, P<0.0001
Procedure: The assay is an enzymatic colorimetric method. In the presence of magnesium ions, dextran sulfate selectively forms water-soluble complexes with LDL, VLDLA and chylomicrons, which are resistant to PEG-modified enzymes. The HDL cholesterol is determined enzymatically by cholesterol esterase and cholesterol oxidase coupled with PEG to the amino groups. Cholesterol esters are broken down quantitatively to free cholesterol and fatty acids. HDL cholesterol is enzymatically oxidized to choles-4-en-3-one and H2O2, and the formed H2O2 is measured colorimetrically (Cobas®; Application note HDLC3).
The direct determination of LDL takes advantage of the selective micellary solubilization of LDL by a nonionic detergent and the interaction of a sugar compound and lipoproteins (VLDL and chylomicrons). The combination of a sugar compound with detergent enables the selective determination of LDL in plasma. […] Free cholesterol is then oxidized and the formed H2O2 is measured colorimetrically (Application note LDL_C, Cobas®).
Diet Induced Obese (DIO) mice were treated with vehicle or compound 7 for 4 weeks and plasma prepared from the collected blood samples. The total cholesterol, LDL and HDL were determined in each plasma sample (Cobas® application notes: CHOL2, HDLC3 and LDL_C) and results are shown in FIGS. 5 and 6.

[4] = Body weight gain in high fat fed C57BL/6J mice (10 days); settings: 5 nmol/kg b.i.d. s.c., short term high fat-fed C57BL/6J mice
How it was run: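 Male C57Bl/6J mice fed high fat diet for 4 weeks from 6 weeks of age, vehicle-acclimatized 3 days, then dosed b.i.d. s.c. with peptide at 0.5 and 5 nmol/kg or vehicle. Doses corrected to daily body weights, which were recorded throughout.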

[5] = HbA1c in db/db mice after 28 days; settings: 4 weeks, 12.7 nmol/kg, P=0.03 Students t-test
Procedure: Male mice (Long term high fat fed C57Bl/6J, short term high fat fed C57Bl/6J and db/db) were acclimatized with free access to food and water. They were housed in groups of 5-6 in a light-, temperature-, and humidity-controlled room (12-hour light:12-hour dark cycle, lights On/Off at 2000/0800 hour; 24° C.; 50% relative humidity).
The animals were injected s.c. with 100 μl vehicle (once a day) for a period of three days to acclimatize the animals to handling and injections. Blood samples were taken from the eye or from the tip of the tail. The animals were randomized before treatment.
Mice were treated twice daily s.c. with GluGLP-1 agonist or vehicle (injection volume=2.5 ml/kg). Throughout the study, body weights were recorded daily and used to administer the body weight-corrected doses of peptide. Peptide solutions were prepared fresh immediately before dosing. […]
The HbA1c determination is based on Turbidimetric INhibition ImmunoAssay (TINIA) in which HbA1c in the sample reacts with anti-HbA1c to form soluble antigen-antibody complexes. Additions of polyhaptens react with excess anti-HbA1c antibodies to form an insoluble antibody-polyhapten complex, which can be measured turbidimetrically. Liberated hemoglobin in the hemolyzed sample is converted to a derivative having a characteristic absorption spectrum, which is measured bichromatically during the preincubation phases. […]

[6] = Pharmacokinetic screening in mouse plasma after subcutaneous administration; settings: sc, mice, 100 nmol/kg s.c., * = only two time points used for calculation
Procedure: Mice were dosed 100 nmol/kg subcutaneously (s.c.). The mice were sacrificed and the blood collected at the following time points; 0.5, 2, 4, 6, 16 and 24 h. Plasma samples were analyzed using protein precipitation, followed by solid phase extraction (SPE) and liquid chromatography mass spectrometry (LC-MS).
Pharmacokinetic profiles were determined for various acylated compounds.

**Q.** Which results are given for CCCCCCCCCCCCCCCC(=O)N[C@@H](CCC(=O)NCCCC[C@H](NC(=O)[C@H](CO)NC(=O)[C@H](CC(=O)O)NC(=O)[C@H](CC(C)C)NC(=O)[C@H](Cc1ccc(O)cc1)NC(=O)[C@H](CCCCN)NC(=O)[C@H](CO)NC(=O)[C@H](Cc1ccc(O)cc1)NC(=O)[C@H](CC(=O)O)NC(=O)[C@H](CO)NC(=O)[C@@H](NC(=O)[C@H](Cc1ccccc1)NC(=O)[C@@H](NC(=O)CNC(=O)[C@H](CCC(N)=O)NC(=O)C(C)(C)NC(=O)[C@@H](N)Cc1c[nH]cn1)[C@@H](C)O)[C@@H](C)O)C(=O)N[C@@H](C)C(=O)N[C@@H](C)C(=O)N[C@@H](Cc1c[nH]cn1)C(=O)N[C@@H](CC(=O)O)C(=O)N[C@@H](Cc1ccccc1)C(=O)N[C@H](C(=O)N[C@@H](CCC(=O)O)C(=O)N[C@@H](Cc1c[nH]c2ccccc12)C(=O)N[C@@H](CC(C)C)C(=O)N[C@@H](CC(C)C)C(=O)N[C@@H](CO)C(=O)N[C@@H](C)C(N)=O)C(C)C)C(=O)O [Compound 7]?
**A.** food intake, old obese mice ([1]; high fat diet for 52 weeks): reduced food intake during the 0-2, 0-4, 0-8, 0-12 and 0-24 time periods; food intake, young lean mice ([1]; high fat diet for 11 days): reduced food intake during the 0-4, 0-8, 0-12 and 0-24 time periods; glucose tolerance (AUC during oral glucose tolerance test) [2]: significantly improves glucose tolerance; HDL/LDL-ratio [3]: increased the HDL/LDL-ratio; total cholesterol concentrations [3]: decreased total cholesterol concentrations; body weight gain, high dose [4]: significantly decreased body weight gain at the high dose; ΔHbA1c (%) compared to vehicle [5]: decreased ΔHbA1c (%) significantly; half-life [6]: 3.4 h
